Here are results for six compounds from patent US8326545B2, “System and method for displaying a pharmacokinetic and pharmacodynamic drug model” (General Electric Company, priority 2006, dated 2012).

The conditions of test [1]: minimum alveolar concentration; cited from earlier work.
Test [2] can be described thus: Age MAC Awake (variation on MAC that accounts for age and adjusts to consciousness). It is filed as in vivo, patient. The source says:
Interactions are labeled “unknown” when (CeAA>0.3%*AgeMACawake); wherein AGEMACawake is a variation on MAC that accounts for age and adjusts to consciousness.

SMILES strings stand for the structures.

Regarding `[N-]=[N+]=O` [Nitrous Oxide], the MAC in test [1] is 100. Further, the “Age MAC Awake” value turned out to be 64.148 in test [2] (age 18), 55.021 in test [2] (donor one) and 38.817 in test [2] (donor two).
In the case of `FC(F)OC(F)C(F)(F)F` (stereo not drawn) [Desflurane], the MAC in test [1] is 6. Moreover, the figures for the “Age MAC Awake” value in test [2] (age 18), in test [2] (donor one) and in test [2] (donor two) were 2.396, 2.055 and 1.450, respectively.
Regarding `FC(F)OC(Cl)C(F)(F)F` (stereo not drawn) [Isoflurane], the MAC in test [1] is recorded as 1.15. The “Age MAC Awake” value came to 0.459 in test [2] (age 18), 0.394 in test [2] (donor one) and 0.278 in test [2] (donor two).
Regarding `FCOC(C(F)(F)F)C(F)(F)F` [Sevoflurane], in test [1], the MAC is 2.05. The entries for the “Age MAC Awake” value in test [2] (age 18), in test [2] (donor one) and in test [2] (donor two) were 0.819, 0.702 and 0.495, respectively.
`FC(F)OC(F)(F)C(F)Cl` (stereo not drawn) [Enflurane]: the MAC in test [1] was 1.7. Moreover, the “Age MAC Awake” value in test [2] (age 18) was determined as 0.679; in test [2] (donor one), 0.582; in test [2] (donor two), 0.411.
For `FC(F)(F)C(Cl)Br` (stereo not drawn) [Halothane], the MAC in test [1] was 0.75. Besides, the “Age MAC Awake” value in test [2] (age 18) was found to be 0.481; in test [2] (donor one), 0.413; in test [2] (donor two), 0.291.
